For series [1], the target named is T1, Cyclooxygenase (Homo sapiens) (UniProt P35354+P23219). The experiment in a line: Inhibition of COX in human whole blood assessed as decrease in TXB2 production up to 30 uM. The class given is tissue-based.
For series [2], the target named is T2, Prostaglandin E synthase (Homo sapiens, UniProt O14684).
T2 sequence (O14684 whole entry): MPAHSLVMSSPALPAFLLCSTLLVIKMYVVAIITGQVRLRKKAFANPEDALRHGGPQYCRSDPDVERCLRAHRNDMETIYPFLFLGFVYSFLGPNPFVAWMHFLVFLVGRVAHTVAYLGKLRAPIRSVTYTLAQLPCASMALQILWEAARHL
The experiment in a line: Inhibition of mPGES1 in rhIL-1beta-stimulated human A549 cells assessed as PGE2 level treated for 18 hrs after 30 mins pre-incubation with rhIL-1beta by EIA method. Type of series: cell-based.

Series [3] deals with T2, Prostaglandin E synthase. The series can be described thus: (§1) Inhibition of mPGES1 in LPS-induced human whole blood assessed as suppression of PGE2 response after 20 to 24 hrs by LC-MS/MS analysis. Type of series: tissue-based.
Series [4] concerns the target T3, Prostaglandin E synthase (Homo sapiens) (UniProt O14684).
T3 sequence (whole entry): T2 sequence (O14684 whole entry)
Described as §1. Type of series: tissue-based.

The target in series [5] is T1, Cyclooxygenase (Homo sapiens). The experiment in a line: Inhibition of COX in human A549 cells assessed as reduction in PGE2 production at 10 uM. Type of series: cell-based.
Series [6] concerns the target T2, Prostaglandin E synthase. The series can be described thus: Inhibition of human microsomal PGES1 expressed in 293E cells by LC/MS/MS analysis. Type of series: cell-based.
Series [7] has as its target Prostaglandin G/H synthase 1 (Homo sapiens) (UniProt P23219). The experiment in a line: Inhibition of COX-1 (unknown origin) at 10 uM.
Series [8] concerns the target T4, Prostaglandin G/H synthase 2 (Homo sapiens) (UniProt P35354).
T4 sequence (whole entry): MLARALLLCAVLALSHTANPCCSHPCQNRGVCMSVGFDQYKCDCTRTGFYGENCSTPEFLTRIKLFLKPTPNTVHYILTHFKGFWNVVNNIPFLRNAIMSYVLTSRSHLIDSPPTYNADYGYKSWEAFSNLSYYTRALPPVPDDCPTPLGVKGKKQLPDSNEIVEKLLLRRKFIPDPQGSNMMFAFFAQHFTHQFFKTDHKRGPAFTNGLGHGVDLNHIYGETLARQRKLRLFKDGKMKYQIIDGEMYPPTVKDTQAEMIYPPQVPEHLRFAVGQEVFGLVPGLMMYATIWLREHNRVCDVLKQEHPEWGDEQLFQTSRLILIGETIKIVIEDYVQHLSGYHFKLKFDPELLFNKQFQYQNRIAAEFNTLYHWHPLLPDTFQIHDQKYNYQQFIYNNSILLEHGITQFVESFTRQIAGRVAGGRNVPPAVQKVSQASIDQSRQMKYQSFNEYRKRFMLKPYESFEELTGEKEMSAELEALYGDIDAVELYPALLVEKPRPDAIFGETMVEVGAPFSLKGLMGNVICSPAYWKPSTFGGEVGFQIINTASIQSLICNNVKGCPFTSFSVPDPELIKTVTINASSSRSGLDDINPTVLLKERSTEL
The experiment in a line: Inhibition of COX-2 (unknown origin) at 10 uM.

The target in series [9] is T5, Prostaglandin E synthase (Canis lupus familiaris) (UniProt A0SYQ0).
T5 sequence (whole entry): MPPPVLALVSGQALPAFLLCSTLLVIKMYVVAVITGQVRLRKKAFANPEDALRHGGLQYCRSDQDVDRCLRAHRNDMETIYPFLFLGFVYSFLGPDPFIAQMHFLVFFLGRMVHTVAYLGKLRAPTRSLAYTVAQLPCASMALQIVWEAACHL
The experiment in a line: (§2) Inhibition of mPGES1 in LPS-induced dog whole blood assessed as suppression of PGE2 response pre-incubated for 30 mins followed by LPS addition and measured after 5 hrs by LC-MS/MS analysis. Type of series: tissue-based.

The target of series [10] is T1, Cyclooxygenase (Homo sapiens). The series can be described thus: Inhibition of COX in human A549 cells assessed as reduction in PGE2 production. The class given is cell-based.
Series [11] shares this target. The experiment in a line: Inhibition of COX in human whole blood assessed as decrease in PGF2alpha production. The class given is tissue-based.
The target in series [12] is T6, CYP3A4 (Homo sapiens, UniProt P08684). The series can be described thus: Time-dependent inhibition of microsomal CYP3A4 (unknown origin) using midazolam as substrate assessed as alpha-hydroxymidazolam-d4 at 10 uM pre-incubated for 12 mins before NADPH addition formation after 30 mins by LC-MS/MS analysis. The class given is ADME. To be noted: microsomes, probe midazolam.
T6 sequence (P08684 whole entry): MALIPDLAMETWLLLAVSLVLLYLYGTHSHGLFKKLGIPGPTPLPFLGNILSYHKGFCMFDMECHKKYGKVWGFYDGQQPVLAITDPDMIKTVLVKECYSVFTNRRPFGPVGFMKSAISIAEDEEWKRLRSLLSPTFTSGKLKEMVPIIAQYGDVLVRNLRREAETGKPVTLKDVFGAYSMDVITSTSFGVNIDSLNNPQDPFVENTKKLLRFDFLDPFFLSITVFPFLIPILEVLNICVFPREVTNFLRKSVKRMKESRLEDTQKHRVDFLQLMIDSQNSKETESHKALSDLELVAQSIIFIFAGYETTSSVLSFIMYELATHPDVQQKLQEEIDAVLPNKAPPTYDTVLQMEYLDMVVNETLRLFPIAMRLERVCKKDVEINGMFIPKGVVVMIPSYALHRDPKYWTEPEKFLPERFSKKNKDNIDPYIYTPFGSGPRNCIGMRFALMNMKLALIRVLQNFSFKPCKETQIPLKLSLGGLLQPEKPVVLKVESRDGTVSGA

The target in series [13] is T1, Cyclooxygenase (Homo sapiens). The series can be described thus: Inhibition of COX in human whole blood assessed as decrease in TXB2 production. Type of series: tissue-based.
Series [14] has as its target T6, CYP3A4. The experiment in a line: Inhibition of microsomal CYP3A4 (unknown origin) using bufuralol/midazolam/diclofinac as substrate assessed as 1-hydroxybufuralol maleate-d9/alpha-hydroxymidazolam-d4/[13C6]-4-hydroxydiclofinac formation at 10 uM pre-incubated for 10 mins before NADPH addition by LC-MS/MS analysis. Type of series: ADME. To be noted: microsomes, probe bufuralol/midazolam/diclofinac.

Series [15] can be described thus: Oral bioavailability in beagle dog at 2 mg/kg after 0.25 to 24 hrs by LC-MS/MS analysis. Type of series: ADME, organism-based, Canis lupus familiaris. The conditions noted are these: in vivo.
Series [16] is described as follows: Plasma concentration in beagle dog at 2 mg/kg, po after 24 hrs by LC-MS/MS analysis. Type of series: ADME, organism-based, Canis lupus familiaris.
The nature of series [17]: Inhibition of rat microsomal PGES1 expressed in 293E cells by LC/MS/MS analysis. The class given is cell-based.
Series [18] addresses Voltage-gated inwardly rectifying potassium channel KCNH2 (Homo sapiens, UniProt Q12809). The series can be described thus: Inhibition of human ERG.
Series [19] addresses T7, Prostaglandin E synthase (Canis lupus familiaris, UniProt A0SYQ0).
T7 sequence (A0SYQ0 whole entry): T5 sequence (whole entry)
The description is as §2. The class given is tissue-based.

The nature of series [20]: Solubility of compound in FasSIF at 2 mg at room temperature after 24 hrs by HPLC analysis. Type of series: physicochemical.

≈ marks a conversion by molar mass, not a printed value. Calls of active or inactive are those of the source. The rule behind the calls is not given here. A value given as a limit tells only on which side of the number the result lay.

What is called inhibition is the share of the control response that was lost under treatment. For orientation: IC50 means the midpoint of a concentration-inhibition curve. The term IC80 denotes the concentration needed for an effect of 80%. A word on the bioavailability: it is dose-corrected exposure relative to a reference, in per cent. A higher bioavailability goes with good availability. As usually defined, the Ki is a measure of affinity in units of concentration, obtained from inhibition or displacement. A word on the solubility: it is how much of the substance goes into solution per volume. A lower solubility goes with little dissolved substance.

T1 sequence (P23219 whole entry, looked up, one chain of several): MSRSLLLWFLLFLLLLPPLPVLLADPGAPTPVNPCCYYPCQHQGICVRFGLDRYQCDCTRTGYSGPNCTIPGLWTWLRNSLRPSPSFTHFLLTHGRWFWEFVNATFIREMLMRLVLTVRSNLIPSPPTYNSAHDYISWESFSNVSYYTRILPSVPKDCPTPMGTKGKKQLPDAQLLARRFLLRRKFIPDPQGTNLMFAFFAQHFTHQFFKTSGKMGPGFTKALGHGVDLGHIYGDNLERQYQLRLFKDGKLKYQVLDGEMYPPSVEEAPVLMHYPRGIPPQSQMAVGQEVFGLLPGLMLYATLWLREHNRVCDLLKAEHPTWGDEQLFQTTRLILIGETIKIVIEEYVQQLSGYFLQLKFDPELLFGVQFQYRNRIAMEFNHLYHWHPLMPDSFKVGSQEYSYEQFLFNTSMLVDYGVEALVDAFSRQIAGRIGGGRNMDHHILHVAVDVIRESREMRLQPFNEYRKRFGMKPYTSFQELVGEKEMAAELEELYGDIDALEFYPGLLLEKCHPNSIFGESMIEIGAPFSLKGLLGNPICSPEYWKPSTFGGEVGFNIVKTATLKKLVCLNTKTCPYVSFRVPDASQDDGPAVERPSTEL
Chain of Voltage-gated inwardly rectifying potassium channel KCNH2 (Q12809 whole entry): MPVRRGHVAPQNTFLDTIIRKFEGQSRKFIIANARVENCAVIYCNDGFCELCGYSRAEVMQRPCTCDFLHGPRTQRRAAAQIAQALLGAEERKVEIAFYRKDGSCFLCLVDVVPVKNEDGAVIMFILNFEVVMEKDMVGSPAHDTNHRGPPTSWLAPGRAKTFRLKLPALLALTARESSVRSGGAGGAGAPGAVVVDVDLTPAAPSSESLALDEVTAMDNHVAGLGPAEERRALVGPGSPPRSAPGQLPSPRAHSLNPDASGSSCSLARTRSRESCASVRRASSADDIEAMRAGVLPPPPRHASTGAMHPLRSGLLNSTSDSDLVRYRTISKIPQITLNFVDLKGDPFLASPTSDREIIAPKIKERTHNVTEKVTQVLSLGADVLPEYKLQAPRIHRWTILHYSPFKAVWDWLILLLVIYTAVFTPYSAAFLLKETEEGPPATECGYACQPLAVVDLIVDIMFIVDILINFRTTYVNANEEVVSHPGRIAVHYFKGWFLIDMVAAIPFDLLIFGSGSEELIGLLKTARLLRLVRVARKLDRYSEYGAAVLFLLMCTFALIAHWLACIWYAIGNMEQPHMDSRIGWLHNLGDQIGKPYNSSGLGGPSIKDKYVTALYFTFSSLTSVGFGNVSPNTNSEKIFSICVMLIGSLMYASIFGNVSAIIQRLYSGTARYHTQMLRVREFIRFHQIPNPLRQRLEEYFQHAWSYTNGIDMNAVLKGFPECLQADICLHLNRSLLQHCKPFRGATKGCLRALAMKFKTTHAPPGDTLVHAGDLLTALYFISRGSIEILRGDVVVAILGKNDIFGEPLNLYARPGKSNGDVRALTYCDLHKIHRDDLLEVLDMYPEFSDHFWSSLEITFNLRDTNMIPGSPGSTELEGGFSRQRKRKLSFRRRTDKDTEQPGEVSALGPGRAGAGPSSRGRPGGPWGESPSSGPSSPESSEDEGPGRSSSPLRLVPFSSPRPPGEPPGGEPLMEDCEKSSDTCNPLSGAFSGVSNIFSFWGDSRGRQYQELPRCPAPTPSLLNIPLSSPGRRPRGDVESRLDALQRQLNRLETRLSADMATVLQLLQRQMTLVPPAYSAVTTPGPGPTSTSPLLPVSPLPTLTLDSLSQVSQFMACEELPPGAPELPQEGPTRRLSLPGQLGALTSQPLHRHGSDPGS
Chain of Prostaglandin G/H synthase 1 (Homo sapiens) (P23219 whole entry): as the sequence (P23219 whole entry, looked up, one chain of several) above

With `CC(C)C(=O)NCc1cc(C(=O)Nc2ncc[nH]2)c(Cl)cc1F`, the inhibition result in series [1] and in series [5] was “inactive” throughout. Also, the IC50 was > 10000 nM on Prostaglandin E synthase [2], 9530 nM on Prostaglandin E synthase [3] and 3670 nM at Prostaglandin E synthase [6]. In addition, the IC80 in [4] was 57400 nM.
`Cc1nc(NC(=O)c2cc(CNC(=O)C(C)C)cnc2C(F)F)[nH]c1-c1ccc(C(F)(F)F)cc1` [listing 1 of 2 here]: the IC80 in series [4] turned out to be 69 nM; in [9], 703 nM. For the same compound, the inhibition entry in [7] and in series [8] was “inactive” throughout.
Regarding `CC[C@H](C)C(=O)NCc1ccc(C(F)F)c(C(=O)Nc2ncc[nH]2)c1`, the inhibition result in [1] and in series [5] was “inactive” in each case. Also, the results for the IC50 on Prostaglandin E synthase [2], on Prostaglandin E synthase [3] and against Prostaglandin E synthase [6] were 8860 nM, 10500 nM and 1120 nM, respectively. In addition, in series [4], the IC80 came to 21100 nM.
Turning to `CC(C)(C)C(=O)NCc1ccc(Br)c(C(=O)Nc2ncc[nH]2)c1`, the inhibition entry in series [1] and in series [5] was “inactive” in each case.
For `CC(C)C(=O)NCc1cnc(C(F)F)c(C(=O)Nc2ncc(-c3ccc(Cl)cc3)[nH]2)c1`, the IC50 was 37 nM at Prostaglandin E synthase [2], 29 nM at Prostaglandin E synthase [3] and < 3 nM against Prostaglandin E synthase [6]. The IC80 in series [4] amounted to 146 nM. Moreover, the inhibition result in series [10], in series [11] and in [13] was “inactive” each time. Besides, at CYP3A4 [12], the inhibition at 0.5 h, 10 µM amounted to 72%. Moreover, the inhibition at 10 µM at CYP3A4 [14] amounted to 22%.
On to `CC(C)(C)C(=O)NCc1ccc(C(F)(F)F)c(C(=O)Nc2ncc[nH]2)c1`, for which the inhibition entry in [1] and in [5] was “inactive” in each case. The results for the IC50 at Prostaglandin E synthase [2], at Prostaglandin E synthase [3] and at Prostaglandin E synthase [6] were 3230 nM, 2140 nM and 1080 nM, respectively. The IC80 in series [4] turned out to be 10500 nM.
Turning to `Cc1c(CC(C)(C)C(=O)O)n(Cc2ccc(Cl)cc2)c2ccc(-c3ccc(-c4ccccc4)c(F)c3)cc12`, the inhibition at 10 µM at CYP3A4 [14] came out at 46%.
The compound `Cc1nc(NC(=O)c2cc(CNC(=O)C(C)C)cnc2C(F)F)[nH]c1-c1ccc(C(F)(F)F)cc1` [listing 2 of 2 here] yielded a bioavailability in series [15] of 37%. Also, in series [16], the concentration at 24 h is > 200 nM. On CYP3A4 [12], the inhibition at 0.5 h, 10 µM turned out to be 23%. Besides, the IC50 came to 33900 nM in [17], 0.9 nM on Prostaglandin E synthase [6], 82600 nM in series [18] and 139 nM on Prostaglandin E synthase [19]. The compound further gave an inhibitory constant (Ki) in [18] of 41300 nM. Moreover, at CYP3A4 [14], the inhibition at 10 µM came out at 0%. The concentration in solution in series [20] (solubility at 24 h) was 7 µg/mL (≈ 14.1 µM).
Regarding `Cc1nc(NC(=O)c2cc(CNC(=O)C(C)C)cnc2C(F)F)[nH]c1-c1ccc(Cl)cc1`, the IC50 at Prostaglandin E synthase [2] is 39 nM; on Prostaglandin E synthase [3] it was 91 nM; against Prostaglandin E synthase [6], < 3 nM. Also, the IC80 in [4] stood at 480 nM. Also, the inhibition at 0.5 h, 10 µM on CYP3A4 [12] came to 27%. Besides, at CYP3A4 [14], the inhibition at 10 µM was found to be 0%.
`CC(C)C(=O)NCc1ccc(Cl)c(C(=O)Nc2ncc[nH]2)c1`: the inhibition result in series [1] and in series [5] was “inactive” each time. Further, in series [4], the concentration for an effect of 80% (IC80) turned out to be 8800 nM.

The values above are taken from ChEMBL document CHEMBL3758174, “Discovery and Characterization of 2-Acylaminoimidazole Microsomal Prostaglandin E Synthase-1 Inhibitors” (J Med Chem, 2016).
